# Experiments:
# Assay type in all cases: cell-based
# PSMA coated beads [1] = experiment: Molecule induced phagocytosis of PSMA coated beads by IFN-γ primed U937 cells; conditions: for Observed % Phagocytosis (50 nM SyAM-P2): beads; for phagocytosis of PSMA coated beads (comparison in words): compared with the previous generation SyAM-P
# Experimental: (§1) Three days before the experiments, a plate of U937 cells (approximately 60% confluent) was passed into a new Petri dish (10 mL colored RPMI growth media total volume). IFN-γ (20 μL, 100 μg/mL in DPBS) was added, and the cells were maintained in an incubator (37° C., 24 h). The cells were pelleted after 24 hours and resuspended in 10 mL of IFN-γ (20 uL, 100 ug/mL in DPBS) and maintained in an incubator (37° C., 24 h)
# For phagocytosis: cells were transferred into a Falcon tube, and DiD (19 uL, final concentration=1.9 μM) was added. The cells were maintained in an incubator (37° C., 30 min), pelleted, aspirated, resuspended in RPMI growth media (10 mL), and split equally into two Petri dishes. To each dish were added additional colored RPMI growth media (5 mL) and IFN-γ (20 μL, 100 μg/mL in DPBS), and maintained in an incubator (37° C., 24 h).
# […] streptavidin fluoresbrite YG microspheres from Polysciences were incubated with 4× concentration of avi-tagged PSMA for 30 minutes at room temperature in DPBS (concentration of avi-tagged PSMA is dependent on biotin loading capacity of microspheres). Beads were washed with DPBS 2× and resuspended in color-free ADCP media at 1.6 million beads/mL.
# Phagocytosis: 25 uL of bead solution was added to 25 uL of ADCP media either with or without molecules at various concentrations in an eppendorf tube. To this 50 uL of 4 million/mL primed U937 cells were added, gently mixed and then centrifuged at […] for 2 minutes. The caps were opened and placed in an incubator (37° C., 1 hr) at which point the eppendorfs were closed and placed on ice. Samples were vortexed and run on an Accuri C6 flow cytometer for a total of 50 k counts.
# Data analysis: For each experiment 50,000 events were counted. Forward and side scatter plots were optimally gated to remove debris particles and cellular aggregates. On a plot of FL-2 vs FL-4 the following populations were counted: […]
# RM1.PGLS cells [2] = experiment: Phagocytosis of PSMA expressing RM1.PGLS cells by IFN-γ primed U937 cells; conditions: for phagocytosis of RM1.PGLS cells (in words): IFN-γ primed U937 effectors
# Experimental: Target cell passing: Three days before the experiments, a plate of target cells, RM1.PGLS cells were passed into a new flask.
# Effector cell priming: Three days before the experiments, a plate of U937 cells (approximately 60% confluent) was passed into a new Petri dish (10 mL colored ADCP media total volume). IFN-γ (20 μL, 100 μg/mL in DPBS) was added, and the cells were maintained in an incubator (37° C., 24 h). The cells were transferred into a Falcon tube, and DiD (19 uL, final concentration=1.9 μM) was added. The cells were maintained in an incubator (37° C., 30 min), pelleted, aspirated, resuspended in colored ADCP media (10 mL), and split equally into two Petri dishes. To each dish were added additional colored ADCP media (5 mL) and IFN-γ (20 μL, 100 μg/mL in DPBS), and the cells were maintained in an incubator (37° C., 24 h).
# Target cell preparation: To a plate of target cells (60-80% confluent RM1.PGLS cells 10 mL total media volume) was added DiO (20 μL, final concentration=2 μM). The cells were maintained in an incubator (37° C., 30 min), aspirated, and washed with colored ADCP media (3×10 mL). Colored ADCP media (10 mL) was added. The cells were maintained in an incubator (37° C., 2 h), detached and resuspended in color-free ADCP media at a concentration of 0.5 million cells per mL.
# Effector cell preparation: Both dishes of primed U937 cells were transferred into a Falcon tube, pelleted, aspirated, resuspended in color-free ADCP media (10 mL), counted, and diluted with color-free ADCP media to give a final concentration of 2 million cells per mL.
# Phagocytosis: All conditions were run in triplicate. For each experiment, into a sterile 2 mL Eppendorf tube were added color-free ADCP media (25 μL) containing either various concentrations of SyAM-Px or ARM-P8/Anti-DNP antibody, target cells (25 μL=12,500 cells), and effector cells (50 μL=100,000 cells), to give an effector-to-target ratio of 8:1. Tubes were gently agitated by hand. The cells were pelleted (2 min, 1100 rpm). The tubes were opened, maintained in an incubator (37° C., 1 h), resuspended by briefly agitating with a vortex, and analyzed by flow cytometry.
# RM1.PGLS cells [3] = experiment: Superoxide burst (lucigenin) by primed U937 cells against RM1.PGLS cells; conditions: IFN-γ primed U937 effectors
# From the text: Since SyAM-P1 was able to induce effector-cell mediated responses against target protein coated beads, the inventors then evaluated if the molecule can elicit the effects against PSMA expressing cells. To that end, the inventors evaluated the SyAM-P1 induced immune responses by primed U937 effector cells against PSMA expressing RM1.PGLS cells. They tested the U937-mediated immune effects by evaluating both superoxide burst and phagocytosis of effector cells, analogous to the protein coated bead experiments. In this experiment, IFN-γ primed U937 cells were incubated with PSMA expressing RM1.PGLS cells, and treated with various concentrations of SyAM-P1. The resulting superoxide burst response was measured using the lucigenin assay (data not shown). Additionally, primed U937 cells (stained with DiD, an FL4 membrane dye) were incubated with target RM1.PGLS cells (stained with […], an FL1 membrane dye), in the presence of various concentrations of SyAM-P 1. The resulting phagocytosis—indicated by FL1 and FL4 double positive cells—was measured using two-color flow-cytometry. As a positive control, ARM-P8 combined with anti-DNP antibodies was utilized. […] The positive response seen with the Arm-P8 control, could potentially be attributed to the ability of antibodies to ligate both FcγRI and FcγRIIA on the immune effector cells, increasing immune signaling and phagocytic responses.
# PSMA coated beads [4] = experiment: ROS production (superoxide burst, lucigenin) by primed U937 cells against PSMA coated beads
# Experimental: as §1
# For ROS production cells were resuspended in RPMI growth media (10 mL), and split equally into two Petri dishes. To each dish were added additional colored RPMI growth media (5 mL) and IFN-γ (20 μL, 100 μg/mL in DPBS), and maintained in an incubator (37° C., 24 h)
# Primed U937 were suspended in color-free ADCP media at a concentration of 3×10^5 U937 cells and mixed with 10^5 PSMA coated beads and various concentrations of molecules in a 96 well plate in a volume of 90 uL. To each well was added 10 μl of 2.5 mM lucigenin (Tokyo Chemicals) solution to bring the total volume to 100 μl. The plate was centrifuged at 200 rcf for 2 minutes (PLATE SPINNER). The chemiluminescence was then measured at two minute intervals by plate reader (Biotek Synergy 2) for 60 to 90 minutes.
Compound,"inhibition of SyAM-P3 induced phagocytosis of PSMA coated beads (PSMA coated beads [1]; 50 nM SyAM-P3, increasing inhibitor concentrations)","effect of inhibitor on SyAM-P1 induced immune effector responses (superoxide burst, phagocytosis of beads) (PSMA coated beads [1]; data not shown)","inhibition of SyAM-P3 induced phagocytosis of RM1.PGLS cells (RM1.PGLS cells [2]; 6.25 nM SyAM-P3, increasing inhibitor concentrations)","Observed % Phagocytosis (50 nM SyAM-P2) (PSMA coated beads [1]; labeling 2.9 pmol/bead, calculated 1972 PSMA/um^2) [%]","Observed % Phagocytosis (50 nM SyAM-P2) (PSMA coated beads [1]; labeling 5.7 pmol/bead, calculated 3876 PSMA/um^2) [%]","Observed % Phagocytosis (50 nM SyAM-P2) (PSMA coated beads [1]; labeling 8.2 pmol/bead, measured 5577 PSMA/um^2) [%]",phagocytosis of PSMA coated beads (comparison in words) (PSMA coated beads [1]),phagocytosis of RM1.PGLS cells (in words) (RM1.PGLS cells [2]),"Observed % Phagocytosis (50 nM SyAM-P2) (RM1.PGLS cells [2]; target RM1.PGLS cells, measured 918 PSMA/um^2, 50 nM) [%]",superoxide burst against RM1.PGLS cells (in words) (RM1.PGLS cells [3]),concentration of peak phagocytosis response (RM1.PGLS cells [2]; RM1.PGLS cells) [nM],"phagocytosis of RM1.PGLS cells compared with ArmP8 plus anti-DNP antibody (RM1.PGLS cells [2]; anti-DNP antibody 133 nM, background subtracted)","superoxide production without target PSMA+ beads (PSMA coated beads [4]; SyAM-P3 alone, various concentrations)",superoxide burst against PSMA coated beads (comparison in words) (PSMA coated beads [4]; compared with SyAM-P2)
"O=C(O)CCC(CP(=O)(O)O)C(=O)O (centres unmarked) [2-PMPA, reference compound]",inhibition of phagocytosis,abrogated,inhibition of phagocytosis,,,,,,,,,,,
CC(=O)N[C@H](C(=O)N[C@@H](CC(N)=O)C(=O)N[C@@H](CO)C(=O)N[C@H]1CSSC[C@@H](C(=O)NCC(=O)N[C@@H](CC(=O)O)C(=O)N[C@@H](CC(=O)O)C(=O)N[C@@H](C)C(=O)N[C@@H](CCCCNC(=O)CCCCc2cn(-c3cc(C(=O)NCCCCCC(=O)NCCCCCC(=O)NCCCCCC(=O)NCCCCCC(=O)NCCCCCC(=O)NCCCCCC(=O)NCc4cn(CCCC[C@H](NC(=O)N[C@@H](CCC(=O)O)C(=O)O)C(=O)O)nn4)cc(C(=O)NCCCCCC(=O)NCCCCCC(=O)NCCCCCC(=O)NCCCCCC(=O)NCCCCCC(=O)NCCCCCC(=O)NCc4cn(CCCC[C@H](NC(=O)N[C@@H](CCC(=O)O)C(=O)O)C(=O)O)nn4)c3)nn2)C(=O)N[C@@H](CCCCNC(=O)CCCC[C@@H]2SC[C@@H]3NC(=O)N[C@@H]32)C(N)=O)NC(=O)CNC(=O)[C@H](CC(C)C)NC(=O)[C@H](CC(C)C)NC(=O)[C@H](CC(N)=O)NC(=O)[C@@H]2CCCN2C(=O)[C@H](CC(C)C)NC(=O)[C@H](CC(C)C)NC(=O)[C@H](CC(C)C)NC1=O)C(C)C [SyAM-P2],,,,10.1,24.0,46.2,much higher level of phagocytosis,no response,0,no response,,,,
CC(=O)N[C@H](C(=O)N[C@@H](CC(N)=O)C(=O)N[C@@H](CO)C(=O)N[C@H]1CSSC[C@@H](C(=O)NCC(=O)N[C@@H](CC(=O)O)C(=O)N[C@@H](CC(=O)O)C(=O)N[C@@H](CCCCNC(=O)CCCC(=O)NCCOCCOCCOCC(=O)NCCCC[C@H](NC(=O)COCCOCCOCCNC(=O)CCCC(=O)NCCCC[C@H](NC(=O)[C@H](CC(=O)O)NC(=O)[C@H](CC(=O)O)NC(=O)CNC(=O)[C@@H]2CSSC[C@H](NC(=O)[C@H](CO)NC(=O)[C@H](CC(N)=O)NC(=O)[C@@H](NC(C)=O)C(C)C)C(=O)N[C@@H](CC(C)C)C(=O)N[C@@H](CC(C)C)C(=O)N[C@@H](CC(C)C)C(=O)N3CCC[C@H]3C(=O)N[C@@H](CC(N)=O)C(=O)N[C@@H](CC(C)C)C(=O)N[C@@H](CC(C)C)C(=O)NCC(=O)N2)C(=O)N[C@@H](CCCCNC(=O)CCCC[C@@H]2SC[C@@H]3NC(=O)N[C@@H]32)C(N)=O)C(=O)NCc2cn(-c3cc(C(=O)NCCCCCC(=O)NCCCCCC(=O)NCCCCCC(=O)NCCCCCC(=O)NCCCCCC(=O)NCCCCCC(=O)NCc4cn(CCCC[C@H](NC(=O)N[C@@H](CCC(=O)O)C(=O)O)C(=O)O)nn4)cc(C(=O)NCCCCCC(=O)NCCCCCC(=O)NCCCCCC(=O)NCCCCCC(=O)NCCCCCC(=O)NCCCCCC(=O)NCc4cn(CCCC[C@H](NC(=O)N[C@@H](CCC(=O)O)C(=O)O)C(=O)O)nn4)c3)nn2)C(=O)N[C@@H](CCCCNC(=O)CCCC[C@@H]2SC[C@@H]3NC(=O)N[C@@H]32)C(N)=O)NC(=O)CNC(=O)[C@H](CC(C)C)NC(=O)[C@H](CC(C)C)NC(=O)[C@H](CC(N)=O)NC(=O)[C@@H]2CCCN2C(=O)[C@H](CC(C)C)NC(=O)[C@H](CC(C)C)NC(=O)[C@H](CC(C)C)NC1=O)C(C)C [SyAM-P3],,,,,,,much greater immune response,"effectively induce U937-mediated phagocytosis, in a dose dependent manner",,No response,10,phagocytosis at significantly less concentration than for ArmP8,little to no background superoxide detection,much greater immune response
